Reference: patent publication US8741944B2, “Anti-infective agents against intracellular pathogens” (priority 2007, dated 2014)

Tests used:
HT29 (Colon Cancer) = test: NCI DTP tumor cell line screen (SRB), HT29
Method: (§1) For a typical screening experiment, cells are inoculated into 96 well microtiter plates in 100 μL at plating densities ranging from 5,000 to 40,000 cells/well depending on the doubling time of individual cell lines. After cell inoculation, the microtiter plates are incubated at 37° C., 5% CO2, 95% air and 100% relative humidity for 24 h prior to addition of experimental drugs.
(§2) After 24 h, two plates of each cell line are fixed in situ with TCA, to represent a measurement of the cell population for each cell line at the time of drug addition (Tz). Experimental drugs are solubilized in dimethyl sulfoxide at 400-fold the desired final maximum test concentration and stored frozen prior to use. At the time of drug addition, an aliquot of frozen concentrate is thawed and diluted to twice the desired final maximum test concentration with complete medium containing 50 μg/ml gentamicin. Additional four, 10-fold or ½ log serial dilutions are made to provide a total of five drug concentrations plus control. Aliquots of 100 μl of these different drug dilutions are added to the appropriate microtiter wells already containing 100 μl of medium, resulting in the required final drug concentrations.
(§3) Following drug addition, the plates are incubated for an additional 48 h at 37° C., 5% CO2, 95% air, and 100% relative humidity. For adherent cells, the assay is terminated by the addition of cold TCA. Cells are fixed in situ by the gentle addition of 50 μl of cold 50% (w/v) TCA (final concentration, 10% TCA) and incubated for 60 minutes at 4° C. The supernatant is discarded, and the plates are washed five times with tap water and air dried. Sulforhodamine B (SRB) solution (1001) at 0.4% (w/v) in 1% acetic acid is added to each well, and plates are incubated for 10 minutes at room temperature. After staining, unbound dye is removed by washing five times with 1% acetic acid and the plates are air dried. Bound stain is subsequently solubilized with 10 mM trizma base, and the absorbance is read on an automated plate reader at a wavelength of 515 nm. For suspension cells, the methodology is the same except that the assay is terminated by fixing settled cells at the bottom of the wells by gently adding 50 μl of 80% TCA (final concentration, 16% TCA). Using the seven absorbance measurements [time zero, (Tz), control growth, (C), and test growth in the presence of drug at the five concentration levels (Ti)], the percentage growth is calculated at each of the drug concentrations levels. Percentage growth inhibition is calculated as: [(Ti−Tz)/(C−Tz)]×100 for concentrations for which Ti>/=Tz [(Ti−Tz)/Tz]×100 for concentrations for which Ti<Tz
(§4) Three dose response parameters are calculated for each experimental agent. […] The drug concentration resulting in total growth inhibition (TGI) is calculated from Ti=Tz. […] Values are calculated for each of these three parameters if the level of activity is reached; however, if the effect is not reached or is exceeded, the value for that parameter is expressed as greater or less than the maximum or minimum concentration tested.

KM12 (Colon Cancer) = test: NCI DTP tumor cell line screen (SRB), KM12
Method: as §1, §2, §3, §4

TK-10 (Renal Cancer) = test: NCI DTP tumor cell line screen (SRB), TK-10
Method: as §1, §2, §3, §4

MOLT-4 (Leukemia) = test: NCI DTP tumor cell line screen (SRB), MOLT-4
Method: as §1, §2, §3, §4

[1] = system: HOP-92 (Non-Small Cell Lung Cancer); test: NCI DTP tumor cell line screen (SRB), HOP-92
Method: as §1, §2, §3, §4

DU-145 (Prostate Cancer) = test: NCI DTP tumor cell line screen (SRB), DU-145
Method: as §1, §2, §3, §4

OVCAR-4 (Ovarian Cancer) = test: NCI DTP tumor cell line screen (SRB), OVCAR-4
Method: as §1, §2, §3, §4

OVCAR-5 (Ovarian Cancer) = test: NCI DTP tumor cell line screen (SRB), OVCAR-5
Method: as §1, §2, §3, §4

Structure (SMILES): NCC(=O)Nc1ccc(-n2nc(C(F)(F)F)cc2-c2ccc3c(ccc4ccccc43)c2)cc1 [Compound 70, 2-Amino-N-{4-[5-(2-phenanthrenyl)-3-(trifluoromethyl)-1H-pyrazol-1-yl]-phenyl}-acetamide]
- TGI (HT29 (Colon Cancer)): 2.64E−06
- Mean Optical Densities (HT29 (Colon Cancer); Log10 Concentration −4.0): 0.159
- Mean Optical Densities (HT29 (Colon Cancer); Log10 Concentration −5.0): 0.075
- Percent Growth (HT29 (Colon Cancer); Log10 Concentration −5.0): −65%
- Mean Optical Densities (HT29 (Colon Cancer); Log10 Concentration −6.0): 0.801
- Percent Growth (HT29 (Colon Cancer); Log10 Concentration −6.0): 47%
- Mean Optical Densities (HT29 (Colon Cancer); Log10 Concentration −7.0): 1.299
- Percent Growth (HT29 (Colon Cancer); Log10 Concentration −7.0): 88%
- Percent Growth (HT29 (Colon Cancer); Log10 Concentration −8.0): 92%
- TGI (KM12 (Colon Cancer)): 2.67E−06
- Mean Optical Densities (KM12 (Colon Cancer); Log10 Concentration −4.0): 0.264
- Mean Optical Densities (KM12 (Colon Cancer); Log10 Concentration −5.0): 0.146
- Percent Growth (KM12 (Colon Cancer); Log10 Concentration −5.0): −73%
- Mean Optical Densities (KM12 (Colon Cancer); Log10 Concentration −6.0): 1.425
- Percent Growth (KM12 (Colon Cancer); Log10 Concentration −6.0): 54%
- Mean Optical Densities (KM12 (Colon Cancer); Log10 Concentration −7.0): 2.044
- Percent Growth (KM12 (Colon Cancer); Log10 Concentration −7.0): 91%
- Mean Optical Densities (KM12 (Colon Cancer); Log10 Concentration −8.0): 2.151
- Percent Growth (KM12 (Colon Cancer); Log10 Concentration −8.0): 98%
- TGI (TK-10 (Renal Cancer)): 3.10E−06
- Mean Optical Densities (TK-10 (Renal Cancer); Log10 Concentration −4.0): 0.200
- Mean Optical Densities (TK-10 (Renal Cancer); Log10 Concentration −5.0): 0.138
- Percent Growth (TK-10 (Renal Cancer); Log10 Concentration −5.0): −80%
- Mean Optical Densities (TK-10 (Renal Cancer); Log10 Concentration −6.0): 1.304
- Percent Growth (TK-10 (Renal Cancer); Log10 Concentration −6.0): 77%
- Mean Optical Densities (TK-10 (Renal Cancer); Log10 Concentration −7.0): 1.492
- Percent Growth (TK-10 (Renal Cancer); Log10 Concentration −7.0): 100%
- Mean Optical Densities (TK-10 (Renal Cancer); Log10 Concentration −8.0): 1.512
- Percent Growth (TK-10 (Renal Cancer); Log10 Concentration −8.0): 102%
- TGI (MOLT-4 (Leukemia)): 3.10E−06
- Mean Optical Densities (MOLT-4 (Leukemia); Log10 Concentration −4.0): 0.296
- Mean Optical Densities (MOLT-4 (Leukemia); Log10 Concentration −5.0): 0.180
- Percent Growth (MOLT-4 (Leukemia); Log10 Concentration −5.0): −42%
- Mean Optical Densities (MOLT-4 (Leukemia); Log10 Concentration −6.0): 0.614
- Percent Growth (MOLT-4 (Leukemia); Log10 Concentration −6.0): 41%
- Mean Optical Densities (MOLT-4 (Leukemia); Log10 Concentration −7.0): 0.951
- Percent Growth (MOLT-4 (Leukemia); Log10 Concentration −7.0): 87%
- Mean Optical Densities (MOLT-4 (Leukemia); Log10 Concentration −8.0): 0.964
- Percent Growth (MOLT-4 (Leukemia); Log10 Concentration −8.0): 89%
- TGI [1]: 3.07E−06
- Mean Optical Densities ([1]; Log10 Concentration −4.0): 0.267
- Mean Optical Densities ([1]; Log10 Concentration −5.0): 0.095
- Percent Growth ([1]; Log10 Concentration −5.0): −91%
- Mean Optical Densities ([1]; Log10 Concentration −6.0): 1.465
- Percent Growth ([1]; Log10 Concentration −6.0): 87%
- Mean Optical Densities ([1]; Log10 Concentration −7.0): 1.474
- Percent Growth ([1]; Log10 Concentration −7.0): 89%
- Mean Optical Densities ([1]; Log10 Concentration −8.0): 1.509
- Percent Growth ([1]; Log10 Concentration −8.0): 96%
- TGI (DU-145 (Prostate Cancer)): 3.47E−06
- Mean Optical Densities (DU-145 (Prostate Cancer); Log10 Concentration −4.0): 0.132
- Mean Optical Densities (DU-145 (Prostate Cancer); Log10 Concentration −5.0): 0.078
- Percent Growth (DU-145 (Prostate Cancer); Log10 Concentration −5.0): −76%
- Mean Optical Densities (DU-145 (Prostate Cancer); Log10 Concentration −6.0): 0.895
- Percent Growth (DU-145 (Prostate Cancer); Log10 Concentration −6.0): 90%
- Mean Optical Densities (DU-145 (Prostate Cancer); Log10 Concentration −7.0): 1.018
- Percent Growth (DU-145 (Prostate Cancer); Log10 Concentration −7.0): 109%
- Mean Optical Densities (DU-145 (Prostate Cancer); Log10 Concentration −8.0): 0.993
- Percent Growth (DU-145 (Prostate Cancer); Log10 Concentration −8.0): 105%
- TGI (OVCAR-4 (Ovarian Cancer)): 3.41E−06
- Mean Optical Densities (OVCAR-4 (Ovarian Cancer); Log10 Concentration −4.0): 0.172
- Mean Optical Densities (OVCAR-4 (Ovarian Cancer); Log10 Concentration −5.0): 0.093
- Percent Growth (OVCAR-4 (Ovarian Cancer); Log10 Concentration −5.0): −82%
- Mean Optical Densities (OVCAR-4 (Ovarian Cancer); Log10 Concentration −6.0): 1.086
- Percent Growth (OVCAR-4 (Ovarian Cancer); Log10 Concentration −6.0): 94%
- Mean Optical Densities (OVCAR-4 (Ovarian Cancer); Log10 Concentration −7.0): 1.073
- Percent Growth (OVCAR-4 (Ovarian Cancer); Log10 Concentration −7.0): 92%
- Mean Optical Densities (OVCAR-4 (Ovarian Cancer); Log10 Concentration −8.0): 1.114
- Percent Growth (OVCAR-4 (Ovarian Cancer); Log10 Concentration −8.0): 99%
- TGI (OVCAR-5 (Ovarian Cancer)): 3.32E−06
- Mean Optical Densities (OVCAR-5 (Ovarian Cancer); Log10 Concentration −4.0): 0.149
- Mean Optical Densities (OVCAR-5 (Ovarian Cancer); Log10 Concentration −5.0): 0.087
- Percent Growth (OVCAR-5 (Ovarian Cancer); Log10 Concentration −5.0): −83%
